In EP4656630A1, “NOVEL COMPOUND AS LYSYL-TRNA SYNTHETASE 1 INHIBITOR, AND USE THEREOF” (Zymedi Co., Ltd., priority 2023, dated 2024):

Assays:
Organ distribution = assay type: in vivo; parameters: Organ distribution Plasma (ng/ml): concentration or dose not given beside the values
[1] = Microsomal metabolic stability, human; assay type: in vitro ADME
Experimental: (§1) Metabolic stability (MS) evaluation was conducted for the selected compounds by measuring in vitro stability in two species, rat and human, according to the microsomal stability measurement method. As a result, it was identified that MS varied depending on the transformation of parts A, B, and C.

[2] = Microsomal metabolic stability, rat; assay type: in vitro ADME
Experimental: as §1

[3] = S9 metabolic stability, human; assay type: in vitro ADME
Experimental: (§2) Among these, secondary MS measurements were conducted for Compound 25 (C0047), Compound 43 (C0216), and C0001 using the S9 method. This test measured the remaining % at 30, 45, and 60 minutes for four species: mouse, rat, dog, and human.

Raw 264.7 cells = assay: LN (Laminin 421)-induced immune cell migration, Transwell; assay type: cell-based; conditions: Mus musculus, RAW264.7
How it was run: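 Raw 264.7 cells (1 x 10^5/well) seeded in upper chamber of gelatin-coated 5 µm Transwell with compound at 3 µM. Serum-free DMEM with Laminin 421 (1 µg/ml) in lower chamber. After 24 h, migrated cells fixed, hematoxylin-stained and counted by microscopy; expressed as % inhibition versus control.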

[4] = S9 metabolic stability, rat; assay type: in vitro ADME
Experimental: as §2

KARS1 and 37LR = target: T1, KARS1 and 37LR (Homo sapiens, UniProt Q15046); assay: Cell-free ELISA of KARS1 and 37LR (laminin receptor) binding; conditions: 10 µM compound, 1 hour, plate coated with KARS1 (1-207aa), LRF
T1 construct: KARS1 (1-207aa)
Experimental: Next, based on the mechanism of action, a cell-free ELISA analysis was conducted to select compounds with high inhibitory activity on the binding of KARS1 and LR (laminin receptor).

Raw264.7 cells = assay: KARS1-induced trans-migration assay; assay type: cell-based, mouse; conditions: Mus musculus, RAW264.7
How it was run: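 Mouse Raw264.7 macrophage trans-migration induced by externally added KARS1 protein in place of laminin. Candidates with high inhibition at 1 µM were then tested at 0.1~4 µM.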

[5] = Rat pharmacokinetics (po and iv) and bioavailability; assay type: in vivo; conditions: for Cmax / Tmax / half-life / AUC: in vivo
Experimental: For this purpose, formulations suitable for peroral administration (po) and intravenous injection (iv) for each compound were first selected to ensure stable PK progression.
The formulation was selected under the condition of maintaining a clear solution for more than 1 hour at 10 and 30 mpk doses based on po, and the iv formulation was modified when iv use was not possible based on po (Table 8).
To confirm the oral administration potential of the selected compounds, 10 mpk rat po PK was conducted. The PK profile and key indicators after administering 10 mpk to five compounds, C0001, 25, 41, 42, and 43, are shown in Figure 3 and Table 9.
Based on the previous 10 mpk po rat PK results, 30 mpk po rat PK was conducted for four compounds, C0001, 25, 41, and 43, to confirm changes in the blood PK profile of the substances with increasing doses.
For these compounds, 2 mpk iv rat PK was conducted to calculate bioavailability (BA) (Table 11).

[6] = S9 metabolic stability, dog; assay type: in vitro ADME
Experimental: as §2

[7] = S9 metabolic stability, mouse; assay type: in vitro ADME
Experimental: as §2

T1 sequence (Q15046 1-207): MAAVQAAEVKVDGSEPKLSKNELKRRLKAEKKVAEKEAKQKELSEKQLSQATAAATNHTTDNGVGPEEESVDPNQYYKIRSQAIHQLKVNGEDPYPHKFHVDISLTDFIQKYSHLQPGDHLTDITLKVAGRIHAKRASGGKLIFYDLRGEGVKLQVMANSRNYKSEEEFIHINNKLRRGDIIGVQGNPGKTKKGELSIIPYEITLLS

COc1ccc(CCN(Cc2ccc(C#CC(=O)O)cc2)c2nc3cccc(F)c3s2)cc1 [Compound C0001, reference compound]
Organ distribution (ratio per plasma) Brain (Organ distribution; 0.5 h): 0.02
Organ distribution (ratio per plasma) Brain (Organ distribution; 6.0 h): 0.01
Organ distribution (ratio per plasma) Heart (Organ distribution; 0.5 h): 0.06
Organ distribution (ratio per plasma) Heart (Organ distribution; 6.0 h): 0.03
Organ distribution (ratio per plasma) Kidney (Organ distribution; 0.5 h): 0.01 / 0.01
Organ distribution (ratio per plasma) Kidney (Organ distribution; 6.0 h): 0.01 / 0.01
Organ distribution (ratio per plasma) Liver (Organ distribution; 0.5 h): 19.1 / 19.1
Organ distribution (ratio per plasma) Liver (Organ distribution; 6.0 h): 19.1 / 19.1
Organ distribution (ratio per plasma) Lung (Organ distribution; 0.5 h): 0.08
Organ distribution (ratio per plasma) Lung (Organ distribution; 6.0 h): 0.06
Organ distribution Plasma (ng/ml) (Organ distribution; 0.5 h): 3,145 ng/ml
Organ distribution Plasma (ng/ml) (Organ distribution; 6.0 h): 1,769 ng/ml
Metabolic stability (% remaining at 30 min) Human [1]: 56%
Metabolic stability (% remaining at 30 min) Rat [2]: 50%
Metabolic stability (% remaining at each time) Human (min) 30 ([3]; 30 min): 59.1%
Metabolic stability (% remaining at each time) Human (min) 45 ([3]; 45 min): 50.2%
Metabolic stability (% remaining at each time) Human (min) 60 ([3]; 60 min): 46.2%
inhibition at 3 µM (Raw 264.7 cells; 3 µM compound, LN (Laminin 421 1 µg/ml), 24 hours, % inhibition compared to control group, read-out: Migration inhibitor % (3uM)): 41.9%
EC50 (Raw 264.7 cells; LN-induced cell migration, read-out: EC50 for cell migration inhibition induced by LN): 7.93 µM
Metabolic stability (% remaining at each time) Rat (min) 30 ([4]; 30 min): 79.6%
Metabolic stability (% remaining at each time) Rat (min) 45 ([4]; 45 min): 76.6%
Metabolic stability (% remaining at each time) Rat (min) 60 ([4]; 60 min): 83.1%
inhibition at 10 µM (KARS1 and 37LR): 64.5%
inhibition at 1 µM (Raw264.7 cells; 1 µM compound, read-out: KARS1-induced Raw264.7 cell migration (% inhibition, 1uM)): 68.7%
EC50 (Raw264.7 cells; KARS1-induced cell migration, 0.1~4 µM): 0.75 µM
Cmax ([5]; 10 mg/kg, po, 10 mpk): 2020 ng/mL
Tmax ([5]; 10 mg/kg, po, 10 mpk): 0.5 h
half-life ([5]; 10 mg/kg, po, 10 mpk): 1.83 h
Cmax ([5]; 30 mg/kg, po, 30 mpk): 4720 ng/mL
Tmax ([5]; 30 mg/kg, po, 30 mpk): 2 h
half-life ([5]; 30 mg/kg, po, 30 mpk): 2.67 h
AUC ([5]; iv, 2 mg/kg, 2 mpk): 3440 ng·h/mL
AUC ([5]; po, 10 mg/kg, 10 mpk): > 5000 ng·h/mL
AUC ([5]; po, 10 mg/kg, 10 mpk (Table 11)): 5830 ng·h/mL
AUC ([5]; po, 30 mg/kg, 30 mpk): 25600 ng·h/mL
AUC ([5]; po, 30 mg/kg, 30 mpk (Table 11)): 25600 ng·h/mL
BA (%) ([5]; po, 10 mpk against iv 2 mpk): 33.9%
BA (%) ([5]; po, 30 mpk against iv 2 mpk): 49.6%
Metabolic stability (% remaining at each time) Dog (min) 30 ([6]; 30 min): 80.7%
Metabolic stability (% remaining at each time) Dog (min) 45 ([6]; 45 min): 85.6%
Metabolic stability (% remaining at each time) Dog (min) 60 ([6]; 60 min): 75.9%
Metabolic stability (% remaining at each time) Mouse (min) 30 ([7]; 30 min): 67.1%
Metabolic stability (% remaining at each time) Mouse (min) 45 ([7]; 45 min): 62.3%
Metabolic stability (% remaining at each time) Mouse (min) 60 ([7]; 60 min): 49.6%
